Results taken from patent publication US12383545B1, “Treatment of migraine” (priority 2018, dated 2025).

How the values were obtained:
[1] = test system: participants with episodic migraine; test: Study B: phase 3 randomized open-label 52-week long-term safety trial, eDiary efficacy (atogepant arm); type: in vivo, human; settings: for Change from Baseline in Monthly Acute Medication Use Days, LS means - MMRM / Monthly Acute Medication Use Days, Observed Mean: Atogepant 60 mg QD, mITT Population
Experimental: Study B: A phase 3, multicenter, randomized, open label study was conducted to evaluate the long-term safety and tolerability of oral atogepant for the prevention of migraine in participants with episodic migraine (Study B). The study objective was to evaluate the safety and tolerability of daily treatment with atogepant 60 mg QD when administered over 52 weeks for the prevention of migraine in participants with episodic migraine.
FIG. 12 provides a schematic for the long-term safety study design. The study comprised a 4-week baseline/screening period, followed by a 52-week open-label treatment period, and a 4-week safety follow-up period.
A total of 744 participants from 106 sites were randomized in a ratio of 5:2 to the following treatment groups: atogepant 60 mg QD or oral standard of care (SOC) migraine prevention medication. The latter arm was included to contextualize safety data from the atogepant-treated participants, and efficacy measures were collected from the atogepant arm only. Efficacy measures were evaluated using the modified intent-to-treat (mITT) population and a mixed-effects model for repeated measures and included changes from baseline in monthly migraine days (MDDs), moderate/severe headache days, and acute medication use days, as well as the proportion of responders based on reductions in MMDs.
A total of 739 patients (n=546 atogepant) were included in the safety population.
All Screened Participants include those screened participants that signed informed consent forms. The Intent-to-Treat Population (ITT) includes all of the randomized participants. The safety population includes all participants who received at least one dose of study intervention (atogepant or SOC medication).
Efficacy endpoints for this study included change from baseline in monthly migraine days at each monthly period; change from baseline in monthly headache days at each monthly period; change from baseline in monthly acute medication use days at each monthly period; and ≥50% improvement (reduction) in monthly migraine days at each monthly period.

[2] = test system: participants with episodic migraine; test: Study B: MSQ v2.1 domain score over 52 weeks; type: in vivo, human; settings: Role Function-Restrictive (RFR) domain, atogepant 60 mg, mITT Population
Source text: The Migraine-Specific Quality of Life Questionnaire Version 2.1 is one of the most frequently utilized disease-specific tools assessing the impact of migraine on HRQL. The MSQ is a validated tool that assess the impact of migraine on function (i.e., daily social and work-related activities) over the past 4 weeks across three dimensions: Role Function-Restrictive (RR, or “RFR”, relating to how migraines limit the patient's daily social and work related activities), Role Function-Preventive (RP, e.g., how migraines prevent the patient's daily social and work related activities), and Emotional Function (EF, e.g., the emotions associated with a patient's migraines). Patients respond to items using a 6-point scale: “none of the time,” “a little bit of the time,” “some of the time”, “a good bit of the time,” “most of the time” and “all of the time,” which are assigned scores of 1 to 6, respectively. Raw dimension scores are computed as a sum of item responses and rescaled from a 0 to 100 scale such that higher scores indicate better quality of life. See Bagley et al., Validating Migraine-Specific Quality of Life Questionnaire v2.1 in Episodic and Chronic Migraine, Headache, 2012 March; 52 (3): 409-21.
The Migraine-Specific Quality of Life Questionnaire version 2.1 (MSQv2.1) Role Function-Restrictive (RFR) domain least squares (LS) mean (standard error [SE]) at baseline was 48.1 (20.26) and LS mean changes from baseline throughout the trial are shown in FIG. 17 and in Table 32. Findings indicated rapid improvement over the first 12 weeks and sustained improvement from 12 to 52 weeks, and non-zero confidence intervals throughout indicate significant improvement at each timepoint assessed.

[3] = Study B, 60 mg QD, Weeks 1-4, mITT
[4] = Study B, 60 mg QD, Weeks 5-8, mITT
[5] = Study B, 60 mg QD, Weeks 9-12, mITT
[6] = Study B, 60 mg QD, Weeks 13-16, mITT
[7] = Study B, 60 mg QD, Weeks 17-20, mITT
[8] = Study B, 60 mg QD, Weeks 21-24, mITT
[9] = Study B, 60 mg QD, Weeks 25-28, mITT
[10] = Study B, 60 mg QD, Weeks 29-32, mITT
[11] = Study B, 60 mg QD, Weeks 33-36, mITT
[12] = Study B, 60 mg QD, Weeks 37-40, mITT
[13] = Study B, 60 mg QD, Weeks 41-44, mITT
[14] = Study B, 60 mg QD, Weeks 45-48, mITT
[15] = Study B, 60 mg QD, Weeks 49-52, mITT
[16] = Study B, 60 mg QD, weeks 49-52, participants who remained in the trial

## C[C@@H]1[C@H](c2c(F)ccc(F)c2F)C[C@H](NC(=O)c2cnc3c(c2)C[C@@]2(C3)C(=O)Nc3ncccc32)C(=O)N1CC(F)(F)F [atogepant]
[1]; [3]
  Monthly headache days, change from baseline, LS means (95% CI) - MMRM: -4.00 days
  Monthly headache days, observed mean (SD): 4.40 days
  Monthly migraine days, change from baseline, LS means (95% CI) - MMRM: -3.84 days
  Monthly migraine days, observed mean (SD): 3.47 days
  ≥50% improvement (reduction) in monthly migraine days, responder n/N1 (%): (60.4) %
[1]; [4]
  Monthly headache days, change from baseline, LS means (95% CI) - MMRM: -4.40 days
  Monthly headache days, observed mean (SD): 3.97 days
  Monthly migraine days, change from baseline, LS means (95% CI) - MMRM: -4.15 days
  Monthly migraine days, observed mean (SD): 3.13 days
  ≥50% improvement (reduction) in monthly migraine days, responder n/N1 (%): (65.1) %
[1]; [5]
  Monthly headache days, change from baseline, LS means (95% CI) - MMRM: -4.80 days
  Monthly headache days, observed mean (SD): 3.51 days
  Monthly migraine days, change from baseline, LS means (95% CI) - MMRM: -4.38 days
  Monthly migraine days, observed mean (SD): 2.85 days
  ≥50% improvement (reduction) in monthly migraine days, responder n/N1 (%): (70.2) %
[1]; [6]
  Monthly headache days, change from baseline, LS means (95% CI) - MMRM: -5.12 days
  Monthly headache days, observed mean (SD): 3.19 days
  Monthly migraine days, change from baseline, LS means (95% CI) - MMRM: -4.69 days
  Monthly migraine days, observed mean (SD): 2.52 days
  ≥50% improvement (reduction) in monthly migraine days, responder n/N1 (%): (74.1) %
[1]; [7]
  Monthly headache days, change from baseline, LS means (95% CI) - MMRM: -5.35 days
  Monthly headache days, observed mean (SD): 2.84 days
  Monthly migraine days, change from baseline, LS means (95% CI) - MMRM: -4.76 days
  Monthly migraine days, observed mean (SD): 2.33 days
  ≥50% improvement (reduction) in monthly migraine days, responder n/N1 (%): (73.5) %
[1]; [8]
  Monthly headache days, change from baseline, LS means (95% CI) - MMRM: -5.30 days
  Monthly headache days, observed mean (SD): 2.87 days
  Monthly migraine days, change from baseline, LS means (95% CI) - MMRM: -4.72 days
  Monthly migraine days, observed mean (SD): 2.37 days
  ≥50% improvement (reduction) in monthly migraine days, responder n/N1 (%): (75.3) %
[1]; [9]
  Monthly headache days, change from baseline, LS means (95% CI) - MMRM: -5.42 days
  Monthly migraine days, change from baseline, LS means (95% CI) - MMRM: -4.85 days
  Monthly migraine days, observed mean (SD): 2.20 days
  ≥50% improvement (reduction) in monthly migraine days, responder n/N1 (%): (75.1) %
[1]; [10]
  Monthly headache days, change from baseline, LS means (95% CI) - MMRM: -5.41 days
  Monthly headache days, observed mean (SD): 2.52 days
  Monthly migraine days, change from baseline, LS means (95% CI) - MMRM: -4.82 days
  Monthly migraine days, observed mean (SD): 2.12 days
  ≥50% improvement (reduction) in monthly migraine days, responder n/N1 (%): (76.7) %
[1]; [11]
  Monthly headache days, change from baseline, LS means (95% CI) - MMRM: -5.62 days
  Monthly headache days, observed mean (SD): 2.47 days
  Monthly migraine days, change from baseline, LS means (95% CI) - MMRM: -4.95 days
  Monthly migraine days, observed mean (SD): 2.06 days
  ≥50% improvement (reduction) in monthly migraine days, responder n/N1 (%): (80.5) %
[1]; [12]
  Monthly headache days, change from baseline, LS means (95% CI) - MMRM: -5.69 days
  Monthly headache days, observed mean (SD): 2.45 days
  Monthly migraine days, change from baseline, LS means (95% CI) - MMRM: -4.97 days
  Monthly migraine days, observed mean (SD): 2.08 days
  ≥50% improvement (reduction) in monthly migraine days, responder n/N1 (%): (78.1) %
[1]; [13]
  Monthly headache days, change from baseline, LS means (95% CI) - MMRM: -5.66 days
  Monthly headache days, observed mean (SD): 2.45 days
  Monthly migraine days, change from baseline, LS means (95% CI) - MMRM: -4.95 days
  Monthly migraine days, observed mean (SD): 2.09 days
  ≥50% improvement (reduction) in monthly migraine days, responder n/N1 (%): (78.5) %
[1]; [14]
  Monthly headache days, change from baseline, LS means (95% CI) - MMRM: -5.90 days
  Monthly headache days, observed mean (SD): 2.23 days
  Monthly migraine days, change from baseline, LS means (95% CI) - MMRM: -5.13 days
  Monthly migraine days, observed mean (SD): 1.91 days
  ≥50% improvement (reduction) in monthly migraine days, responder n/N1 (%): (82.4) %
[1]; [15]
  Monthly headache days, change from baseline, LS means (95% CI) - MMRM: -5.99 days
  Monthly headache days, observed mean (SD): 2.13 days
  Monthly migraine days, change from baseline, LS means (95% CI) - MMRM: -5.19 days
  Monthly migraine days, observed mean (SD): 1.84 days
  ≥50% improvement (reduction) in monthly migraine days, responder n/N1 (%): 84.2%
[1]; Study B, 60 mg QD, Weeks 49-52, mITT, listed as Atogepant
  ≥50% improvement (reduction) in monthly migraine days, responder n/N1 (%): (84.2) %
[1]; [16]
  participants with 100% reduction in MMDs: 48.4%
  participants with ≥75% reduction in MMDs: 69.9%
[1]; Study B, 60 mg, month 1, given as reduction
  reduction from baseline in monthly migraine days: approximately 4 days
[1]; Weeks 1-4
  Change from Baseline in Monthly Acute Medication Use Days, LS means - MMRM: -4.04 days
  Monthly Acute Medication Use Days, Observed Mean: 2.60 days
[1]; Weeks 5-8
  Change from Baseline in Monthly Acute Medication Use Days, LS means - MMRM: -4.11 days
  Monthly Acute Medication Use Days, Observed Mean: 2.49 days
[1]; Weeks 9-12
  Change from Baseline in Monthly Acute Medication Use Days, LS means - MMRM: -4.18 days
  Monthly Acute Medication Use Days, Observed Mean: 2.39 days
[1]; Weeks 13-16
  Change from Baseline in Monthly Acute Medication Use Days, LS means - MMRM: -4.46 days
  Monthly Acute Medication Use Days, Observed Mean: 2.09 days
[1]; Weeks 17-20
  Change from Baseline in Monthly Acute Medication Use Days, LS means - MMRM: -4.56 days
  Monthly Acute Medication Use Days, Observed Mean: 1.92 days
[1]; Weeks 21-24
  Change from Baseline in Monthly Acute Medication Use Days, LS means - MMRM: -4.49 days
  Monthly Acute Medication Use Days, Observed Mean: 2.01 days
[1]; Weeks 25-28
  Change from Baseline in Monthly Acute Medication Use Days, LS means - MMRM: -4.59 days
  Monthly Acute Medication Use Days, Observed Mean: 1.90 days
[1]; Weeks 29-32
  Change from Baseline in Monthly Acute Medication Use Days, LS means - MMRM: -4.54 days
  Monthly Acute Medication Use Days, Observed Mean: 1.84 days
[1]; Weeks 33-36
  Change from Baseline in Monthly Acute Medication Use Days, LS means - MMRM: -4.66 days
  Monthly Acute Medication Use Days, Observed Mean: 1.75 days
[1]; Weeks 37-40
  Change from Baseline in Monthly Acute Medication Use Days, LS means - MMRM: -4.68 days
  Monthly Acute Medication Use Days, Observed Mean: 1.75 days
[1]; Weeks 41-44
  Change from Baseline in Monthly Acute Medication Use Days, LS means - MMRM: -4.71 days
  Monthly Acute Medication Use Days, Observed Mean: 1.69 days
[1]; Weeks 45-48
  Change from Baseline in Monthly Acute Medication Use Days, LS means - MMRM: -4.90 days
  Monthly Acute Medication Use Days, Observed Mean: 1.51 days
[1]; Weeks 49-52
  Change from Baseline in Monthly Acute Medication Use Days, LS means - MMRM: -4.93 days
  Monthly Acute Medication Use Days, Observed Mean: 1.50 days
[2]; Week 12
  Change from Baseline in MSQ v2.1 Domain Score, LS Mean Δ from baseline: 30.02
[2]; Week 24
  Change from Baseline in MSQ v2.1 Domain Score, LS Mean Δ from baseline: 30.79
[2]; Week 36
  Change from Baseline in MSQ v2.1 Domain Score, LS Mean Δ from baseline: 32.34
[2]; Week 48
  Change from Baseline in MSQ v2.1 Domain Score, LS Mean Δ from baseline: 34.32
[2]; Week 52
  Change from Baseline in MSQ v2.1 Domain Score, LS Mean Δ from baseline: 34.70
